Data: patent US20230381142A1, “ANTILEISHMANIAL COMPOUNDS, COMPOSITIONS AND USE THEREOF” (TRUSTEES OF BOSTON UNIVERSITY, priority 2022, published 2023)

System: L. donovani intracellular amastigotes in B10R cells
Experiment: UCSD L. donovani infection assay (Assay Conditions D)
Assay type: cell-based
Details: B10R cells
Procedure: (§1) Assay Conditions D: B10R cells (CVCL_0155) were seeded at 300 cells/well, and L. donovani WT promastigotes in stationary phase (7th day after passage) were added at 6,000 parasites/well (ratio of 20 parasites/cell). Both cells and parasites were seeded in DMEM High-Glucose medium (Gibco, cat. no. 11995065) containing 5% Fetal Bovine Serum (Sigma-Aldrich, cat. no. F2442) and 1% Penicillin-Streptomycin (Gibco, cat. no. 15140122). Cells and parasites were incubated in the presence of the compounds for 72 h at 37° C. and 5% C02. Plates were then fixed with 4% formaldehyde solution for at least 1 h, then washed with 1×PBS and stained with 5 μg/mL DAPI. Plates were read using an ImageXpress microscope (Molecular Devices) and analyzed by MetaXpress software (Molecular Devices) using a custom module optimized for this assay. […] Compounds were tested in a 10-point 2-fold serial dilution in 3 technical replicates, and 2 biological replicates. After 72 h, plates were fixed and stained with DAPI as described above. Images were acquired on an ImageXpress microscope, and analyzed using the MetaXpress custom module.
as §1, with “Compounds were obtained as 0.2 μmoles of dried film for primary single point screening. Each compound was diluted in DMSO to 10 μM final testing concentration. These compounds were tested in 2 biological replicates. The compounds were pre-spotted onto 384-well assay plates in single concentration.” for “Assay Conditions D:”, “CO2.” for “C02.”, “module. The DRCs were plotted, half-effective concentration (EC50) and half-cytotoxic concentration (CC50) were calculated using GraphPad Prism Software, version 6.05 (GraphPad Software, San Diego, CA).” for “module.”

Compound	L. donovani amastigotes EC75 (μM, B10R cells) [µM]
Cc1ccc(C2c3c(CC(C)C)n[nH]c3C(=O)N2c2ccc3ncnn3c2)cc1 (centres unmarked) [BUCMD00156]	>10
CC(C)Cc1n[nH]c2c1C(C1CCCCC1)N(c1ccc3ncnn3c1)C2=O (centres unmarked) [BUCMD00157]	>10
CC(C)Cc1n[nH]c2c1C(c1cccs1)N(c1ccc3ncnn3c1)C2=O (centres unmarked) [BUCMD00158]	>10
COc1cccc(C2c3c(CC(C)C)n[nH]c3C(=O)N2c2ccc3ncnn3c2)c1 (centres unmarked) [BUCMD00159]	>10
CC(C)Cc1n[nH]c2c1C(c1ccc(F)cc1Br)N(c1ccc3ncnn3c1)C2=O (centres unmarked) [BUCMD00160]	>10
CC(C)Cc1n[nH]c2c1C(c1cc(C(F)(F)F)ccc1Br)N(c1ccc3ncnn3c1)C2=O (centres unmarked) [BUCMD00161]	>10
COc1cc(N2C(=O)c3[nH]nc(CC(C)C)c3C2c2ccc(F)cc2)ccn1 (centres unmarked) [BUCMD00163]	>10
COc1cc(N2C(=O)c3[nH]nc(CC(C)C)c3C2c2ccc(F)cc2)ccc1Br (centres unmarked) [BUCMD00164]	>10
COc1cc(OC)cc(N2C(=O)c3[nH]nc(CC(C)C)c3C2c2ccc(F)cc2)c1 (centres unmarked) [BUCMD00165]	>10
Cc1cccnc1N1C(=O)c2[nH]nc(CC(C)C)c2C1c1ccc(F)cc1 (centres unmarked) [BUCMD00166]	>10
Cc1cc(Br)cnc1N1C(=O)c2[nH]nc(CC(C)C)c2C1c1ccc(F)cc1 (centres unmarked) [BUCMD00167]	>10
Cc1cc(Cl)cnc1N1C(=O)c2[nH]nc(CC(C)C)c2C1c1ccc(F)cc1 (centres unmarked) [BUCMD00168]	>10
Cc1cc(N2C(=O)c3[nH]nc(CC(C)C)c3C2c2ccc(F)cc2)n(C)n1 (centres unmarked) [BUCMD00169]	>10
CC(C)Cc1n[nH]c2c1C(c1ccc(F)cc1)N(c1cc(C3CC3)[nH]n1)C2=O (centres unmarked) [BUCMD00170]	>10
CC(C)Cc1n[nH]c2c1C(c1ccc(F)cc1)N(c1cc(C(C)C)nn1C)C2=O (centres unmarked) [BUCMD00171]	>10
CC(C)Cc1n[nH]c2c1C(c1ccc(F)cc1)N(c1cncc(Br)c1)C2=O (centres unmarked) [BUCMD00172]	>10
Cc1ccnc(N2C(=O)c3[nH]nc(CC(C)C)c3C2c2ccc(F)cc2)c1 (centres unmarked) [BUCMD00173]	>10
Cc1ccc(N2C(=O)c3[nH]nc(CC(C)C)c3C2c2ccc(F)cc2)nc1 (centres unmarked) [BUCMD00174]	>10
Cc1cccc(N2C(=O)c3[nH]nc(CC(C)C)c3C2c2ccc(F)cc2)n1 (centres unmarked) [BUCMD00175]	>10
COc1ccc(N2C(=O)c3[nH]nc(CC(C)C)c3C2c2ccc(Br)cc2OC)cn1 (centres unmarked) [BUCMD00176]	>10

Compound	L. donovani amastigotes EC75 (μM, B10R cells) [µM]
COc1ccc(OC)c(N2C(=O)c3[nH]nc(CC(C)C)c3C2c2ccc(OC)nc2)c1 (centres unmarked) [BUCMD00177]	>10
CCc1ccc(C2c3c(CC(C)C)n[nH]c3C(=O)N2c2ccc(F)c(OC)c2)cn1 (centres unmarked) [BUCMD00178]	>10
COc1cc(N2C(=O)c3[nH]nc(CC(C)C)c3C2c2c(C)nn(C)c2Cl)ccc1Br (centres unmarked) [BUCMD00179]	>10
COc1cc(N2C(=O)c3[nH]nc(CC(C)C)c3C2c2c(C)nn(C)c2Cl)ccc1F (centres unmarked) [BUCMD00180]	>10
COc1cc(N2C(=O)c3[nH]nc(CC(C)C)c3C2c2cncc(Br)c2)ccn1 (centres unmarked) [BUCMD00181]	>10
COc1ccc(OC)c(N2C(=O)c3[nH]nc(CC(C)C)c3C2c2cncc(Br)c2)c1 (centres unmarked) [BUCMD00182]	>10
COc1cc(N2C(=O)c3[nH]nc(CC(C)C)c3C2c2cncc(Br)c2)ccc1F (centres unmarked) [BUCMD00183]	>10
COc1cc(OC)cc(N2C(=O)c3[nH]nc(CC(C)C)c3C2c2cncc(Br)c2)c1 (centres unmarked) [BUCMD00184]	>10
COc1cccc(N2C(=O)c3[nH]nc(CC(C)C)c3C2c2cncc(Br)c2)c1 (centres unmarked) [BUCMD00185]	>10
COc1cc(N2C(=O)c3[nH]nc(CC(C)C)c3C2c2ccc(F)cc2C)ccn1 (centres unmarked) [BUCMD00186]	>10
COc1cc(N2C(=O)c3[nH]nc(CC(C)C)c3C2c2cc(Br)ccc2F)ccn1 (centres unmarked) [BUCMD00187]	>10
COc1cc(N2C(=O)c3[nH]nc(CC(C)C)c3C2c2ccc(F)cc2F)ccn1 (centres unmarked) [BUCMD00188]	>10
COc1ncccc1C1c2c(CC(C)C)n[nH]c2C(=O)N1c1ncccc1C (centres unmarked) [BUCMD00189]	>10
COc1ncccc1C1c2c(CC(C)C)n[nH]c2C(=O)N1c1ncc(Br)cc1C (centres unmarked) [BUCMD00190]	>10
COc1ncccc1C1c2c(CC(C)C)n[nH]c2C(=O)N1c1ncc(Cl)cc1C (centres unmarked) [BUCMD00191]	>10
Cc1cc(N2C(=O)c3[nH]nc(CC(C)C)c3C2c2ccc(Br)cc2)n(C)n1 (centres unmarked) [BUCMD00192]	>10
Cc1cc(N2C(=O)c3[nH]nc(CC(C)C)c3C2c2ccc(Cl)cc2)n(C)n1 (centres unmarked) [BUCMD00193]	>10
COc1cc(C2c3c(CC(C)C)n[nH]c3C(=O)N2c2cc(C)nn2C)cc(OC)c1Br (centres unmarked) [BUCMD00194]	>10
COc1cc(C2c3c(CC(C)C)n[nH]c3C(=O)N2c2cc(C3CC3)[nH]n2)cc(OC)c1Br (centres unmarked) [BUCMD00195]	>10
COc1ccc(OC)c(C2c3c(CC(C)C)n[nH]c3C(=O)N2c2cncc(Br)c2)c1 (centres unmarked) [BUCMD00196]	>10

Compound	L. donovani amastigotes EC75 (μM, B10R cells) [µM]
COc1ccc(OC)c(C2c3c(CC(C)C)n[nH]c3C(=O)N2c2cc(C)ccn2)c1 (centres unmarked) [BUCMD00197]	>10
COc1ccc(OC)c(C2c3c(CC(C)C)n[nH]c3C(=O)N2c2ccc(C)cn2)c1 (centres unmarked) [BUCMD00198]	>10
COc1ccc(OC)c(C2c3c(CC(C)C)n[nH]c3C(=O)N2c2cccc(C)n2)c1 (centres unmarked) [BUCMD00199]	>10
Cc1ccc(N2C(=O)c3[nH]nc(CC(C)C)c3C2c2ccc(F)cc2Br)cn1 (centres unmarked) [BUCMD00629]	1.0
Cc1ccc(N2C(=O)c3[nH]nc(CC(C)C)c3C2c2ccc(F)cc2F)cn1 (centres unmarked) [BUCMD00630]	7.3
Cc1cc(N2C(=O)c3[nH]nc(CC(C)C)c3C2c2ccc(F)cc2Br)ccn1 (centres unmarked) [BUCMD00643]	1.2
Cc1cc(F)ccc1C1c2c(CC(C)C)n[nH]c2C(=O)N1c1ccn(C)n1 (centres unmarked) [BUCMD00652]	>10
CC(C)Cc1n[nH]c2c1C(c1ccc(Br)cc1F)N(c1ccn(C)n1)C2=O (centres unmarked) [BUCMD00653]	>10
CC(C)Cc1n[nH]c2c1C(c1ccc(F)cc1Cl)N(c1ccn(C)n1)C2=O (centres unmarked) [BUCMD00654]	>10
CC(C)Cc1n[nH]c2c1C(c1ccc(Cl)cc1F)N(c1ccn(C)n1)C2=O (centres unmarked) [BUCMD00655]	>10
CC(C)Cc1n[nH]c2c1C(c1ccccc1Cl)N(c1ccn(C)n1)C2=O (centres unmarked) [BUCMD00656]	>10
Cc1ccccc1C1c2c(CC(C)C)n[nH]c2C(=O)N1c1ccn(C)n1 (centres unmarked) [BUCMD00657]	>10
CC(C)Cc1n[nH]c2c1C(c1ccc(F)cc1Br)N(c1ccn(C)n1)C2=O (centres unmarked) [BUCMD00658]	>10
CC(C)Cc1n[nH]c2c1C(c1ccc(F)cc1F)N(c1ccn(C)n1)C2=O (centres unmarked) [BUCMD00659]	>10
Cc1ccsc1C1c2c(CC(C)C)n[nH]c2C(=O)N1c1ccn(C)n1 (centres unmarked) [BUCMD00660]	>10
CC(C)Cc1n[nH]c2c1C(c1ccccc1C(F)(F)F)N(c1ccn(C)n1)C2=O (centres unmarked) [BUCMD00661]	>10
CC(C)Cc1n[nH]c2c1C(c1sccc1Br)N(c1ccn(C)n1)C2=O (centres unmarked) [BUCMD00662]	>10
CCn1cc(N2C(=O)c3[nH]nc(CC(C)C)c3C2c2ccc(F)cc2C)cn1 (centres unmarked) [BUCMD00663]	4.0
CCn1cc(N2C(=O)c3[nH]nc(CC(C)C)c3C2c2ccc(Br)cc2F)cn1 (centres unmarked) [BUCMD00664]	>10
